Literature values, collected in patent US20180228837A1, “STABLE IODINE SOLUTIONS WITH MEDICAL APPLICATIONS” (priority 2017, published 2018).
Like-named read-outs stand apart in the source and are kept apart here.

Tests used:
[1] = system: dermal wounds; details: dermal wounds of rabbits
[2] = system: wound chambers and full thickness wounds; details: rats; injected in one area of the body, healing at distant areas
[3] = system: wound chambers and full thickness wounds; details: mice; injected in one area of the body, healing at distant areas
[4] = system: wound chambers and full thickness wounds; details: pigs; injected in one area of the body, healing at distant areas
[5] = system: wounds; details: diabetic rats; collagen membrane material
[6] = system: ischemic open wounds; details: ischemic open wounds in rats; compared with vehicle alone or untreated wounds

Q: What does the source list for “copper complex of a glycyl-L-histidyl-L-lysine peptide [GHK-Cu]”?
A: wound healing [1]: facilitated wound healing; systemic enhancement of healing [2]: induce a systemic enhancement of healing; systemic enhancement of healing [3]: induce a systemic enhancement of healing; systemic enhancement of healing [4]: induce a systemic enhancement of healing; wound contraction and epithelization [5]: faster wound contraction and epithelization; concentration of metalloproteinases 2 and 9 and of TNF-beta [6]: decreased; wound healing [6]: healed faster
